# Source: US9994551B2, “Pyridazine derivatives as RORc modulators” (Genentech, Inc., priority 2015, dated 2018)
# Molecular target: T1, RORc ligand binding domain (Homo sapiens, UniProt P51449)
# T1 construct: host or cells: E. coli
# T1 sequence (P51449 269-508 limits assumed): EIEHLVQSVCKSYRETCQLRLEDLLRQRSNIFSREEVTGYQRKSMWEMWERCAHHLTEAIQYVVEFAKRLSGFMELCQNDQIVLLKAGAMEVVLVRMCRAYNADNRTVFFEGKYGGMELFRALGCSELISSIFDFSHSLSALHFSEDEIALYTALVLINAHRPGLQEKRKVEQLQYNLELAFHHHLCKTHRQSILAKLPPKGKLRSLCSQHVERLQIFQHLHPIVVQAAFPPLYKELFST
# Assay: In vitro RORc ligand binding assay (25-[3H]hydroxycholesterol displacement, filter binding)
row,IC50,Compound
1,720 nM,"CC1(C)[C@H]2CC[C@]1([C@H]1CN(C(=O)c3ccc(=O)[nH]n3)CCO1)c1nnc(-c3c(F)cccc3F)cc12 (stereo in doubt) [Compound 123, 3-[2-[5-(2,6-difluorophenyl)-11,11-dimethyl-3,4-diazatricyclo[6.2.1.02,7]undeca-2,4,6-trien-1-yl]morpholine-4-carbonyl]-1H-pyridazin-6-one]"
2,29 nM,"CC1(C)[C@H]2CC[C@]1([C@@H]1CN(C(N)=O)CCN1)c1nnc(-c3c(F)cccc3F)cc12 [Compound 184, 3-[5-(2,6-difluorophenyl)-11,11-dimethyl-3,4-diazatricyclo[6.2.1.02,7]undeca-2,4,6-trien-1-yl]piperazine-1-carboxamide]"
3,82.9 nM,"CC[C@@H](O[C@@]12CC[C@@H](c3cc(-c4c(F)cccc4F)nnc31)C2(C)C)C(=O)NCC(=O)N(C)C [Compound 104, (R)-2-(((5S,8R)-3-(2,6-difluorophenyl)-9,9-dimethyl-5,6,7,8-tetrahydro-5,8-methanocinnolin-8-yl)oxy)-N-(2-(dimethylamino)-2-oxoethyl)butanamide]"
4,200 nM,"CC1(C)C2CCC1(C1CCCN(C(=O)c3cnoc3)C1)c1nnc(-c3c(F)cccc3F)cc12 (centres unmarked) [Compound 160, [3-[5-(2,6-difluorophenyl)-11,11-dimethyl-3,4-diazatricyclo[6.2.1.02,7]undeca-2,4,6-trien-1-yl]-1-piperidyl]-isoxazol-4-yl-methanone]"
5,21 nM,"CC1(C)[C@H]2CC[C@]1([C@H]1CN(C(=O)c3c[nH]c(=O)cn3)CCO1)c1nnc(-c3c(F)cccc3F)cc12 [Compound 119, 5-[2-[5-(2,6-difluorophenyl)-11,11-dimethyl-3,4-diazatricyclo[6.2.1.02,7]undeca-2,4,6-trien-1-yl]morpholine-4-carbonyl]-1H-pyrazin-2-one]"
6,14.4 nM,"C[C@@H](O[C@@]12CC[C@@H](c3cc(-c4c(F)cccc4F)nnc31)C2(C)C)C(N)=O [Compound 42, (R)-2-(((5S,8R)-3-(2,6-difluorophenyl)-9,9-dimethyl-5,6,7,8-tetrahydro-5,8-methanocinnolin-8-yl)oxy)propanamide]"
7,15 nM,"C[C@@H](O)CNC(=O)N1CCC[C@H]([C@@]23CC[C@@H](c4cc(-c5c(F)cccc5F)nnc42)C3(C)C)C1 [Compound 154, 3-[5-(2,6-difluorophenyl)-11,11-dimethyl-3,4-diazatricyclo[6.2.1.02,7]undeca-2,4,6-trien-1-yl]-N-(2-hydroxypropyl)piperidine-1-carboxamide]"
8,69.8 nM,"COC(=O)N1CCO[C@H]([C@@]23CC[C@@H](c4cc(-c5c(F)cccc5F)nnc42)C3(C)C)C1 [Compound 85, (R)-methyl 2-((5R,8R)-3-(2,6-difluorophenyl)-9,9-dimethyl-5,6,7,8-tetrahydro-5,8-methanocinnolin-8-yl)morpholine-4-carboxylate]"
9,68.9 nM,"CC[C@@H](O[C@@]12CC[C@@H](c3cc(-c4c(F)cccc4F)nnc31)C2(C)C)C(=O)N1CC(C#N)C1 [Compound 37, 1-((R)-2-(((5S,8R)-3-(2,6-difluorophenyl)-9,9-dimethyl-5,6,7,8-tetrahydro-5,8-methanocinnolin-8-yl)oxy)butanoyl)azetidine-3-carbonitrile]"
10,13 nM,"CC1(C)[C@H]2CC[C@]1([C@H]1CCCN(C(=O)NCCS(C)(=O)=O)C1)c1nnc(-c3c(F)cccc3F)cc12 [Compound 158, 3-[5-(2,6-difluorophenyl)-11,11-dimethyl-3,4-diazatricyclo[6.2.1.02,7]undeca-2,4,6-trien-1-yl]-N-(2-methylsulfonylethyl)piperidine-1-carboxamide]"
11,95.2 nM,"CC(C)(O)CNC(=O)CO[C@@]12CC[C@@H](c3cc(-c4c(F)cccc4F)nnc31)C2(C)C [Compound 48, 2-(((5S,8R)-3-(2,6-difluorophenyl)-9,9-dimethyl-5,6,7,8-tetrahydro-5,8-methanocinnolin-8-yl)oxy)-N-(2-hydroxy-2-methylpropyl)acetamide]"
12,9.1 nM,"CC(=O)N1CCN(C)C[C@@H]1[C@@]12CC[C@@H](c3cc(-c4c(F)cccc4F)nnc31)C2(C)C [Compound 182, 1-[2-[5-(2,6-difluorophenyl)-11,11-dimethyl-3,4-diazatricyclo[6.2.1.02,7]undeca-2,4,6-trien-1-yl]-4-methyl-piperazin-1-yl]ethanone]"
13,56.8 nM,"CC1(C)[C@H]2CC[C@]1([C@@H]1CN(C(N)=O)CCO1)c1nnc(-c3c(F)cccc3F)cc12 [Compound 68, (R)-2-((5R,8R)-3-(2,6-difluorophenyl)-9,9-dimethyl-5,6,7,8-tetrahydro-5,8-methanocinnolin-8-yl)morpholine-4-carboxamide]"
14,84 nM,"CC1(C)[C@H]2CC[C@]1(Oc1ncccn1)c1nnc(-c3c(F)cccc3F)cc12 [Compound 14, (5S,8R)-3-(2,6-difluorophenyl)-9,9-dimethyl-8-(pyrimidin-2-yloxy)-5,6,7,8-tetrahydro-5,8-methanocinnoline]"
15,19.8 nM,"CC[C@H](CO)O[C@@]12CC[C@@H](c3cc(-c4c(F)cccc4F)nnc31)C2(C)C [Compound 35, (R)-2-(((5S,8R)-3-(2,6-difluorophenyl)-9,9-dimethyl-5,6,7,8-tetrahydro-5,8-methanocinnolin-8-yl)oxy)butan-1-ol]"
16,4.9 nM,"CC1(C)[C@H]2CC[C@]1([C@H]1CCCN(C(N)=O)C1)c1nnc(-c3c(F)cccc3F)cc12 [Compound 120, 3-[5-(2,6-difluorophenyl)-11,11-dimethyl-3,4-diazatricyclo[6.2.1.02,7]undeca-2,4,6-trien-1-yl]piperidine-1-carboxamide]"
17,237 nM,"CC1(C)[C@H]2CC[C@]1([C@@H]1CN(C(=O)c3ccc(=O)[nH]n3)CCO1)c1nnc(-c3c(F)cccc3F)cc12 [Compound 89, 6-((R)-2-((5R,8R)-3-(2,6-difluorophenyl)-9,9-dimethyl-5,6,7,8-tetrahydro-5,8-methanocinnolin-8-yl)morpholine-4-carbonyl)pyridazin-3(2H)-one]"
18,12 nM,"CC[C@@H](O[C@@]12CC[C@@H](c3cc(-c4c(F)cccc4F)nnc31)C2(C)C)C(=O)OC [Compound 112, methyl (2R)-2-[[(1R,8S)-5-(2,6-difluorophenyl)-11,11-dimethyl-3,4-diazatricyclo[6.2.1.02,7]undeca-2,4,6-trien-1-yl]oxy]butanoate]"
19,7.9 nM,"CC(C)(O)CNC(=O)N1CCC[C@H]([C@@]23CC[C@@H](c4cc(-c5c(F)cccc5F)nnc42)C3(C)C)C1 [Compound 150, 3-[5-(2,6-difluorophenyl)-11,11-dimethyl-3,4-diazatricyclo[6.2.1.02,7]undeca-2,4,6-trien-1-yl]-N-(2-hydroxy-2-methyl-propyl)piperidine-1-carboxamide]"
20,175 nM,"CC1(C)[C@H]2CC[C@]1(c1cncc3nccn13)c1nnc(-c3c(F)cccc3F)cc12 [Compound 109, (5R,8S)-3-(2,6-difluorophenyl)-8-(imidazo[1,2-a]pyrazin-5-yl)-9,9-dimethyl-5,6,7,8-tetrahydro-5,8-methanocinnoline]"
21,29 nM,"CCNC(=O)N1CCC[C@H]([C@@]23CC[C@@H](c4cc(-c5c(F)cccc5F)nnc42)C3(C)C)C1 [Compound 136, 3-[5-(2,6-difluorophenyl)-11,11-dimethyl-3,4-diazatricyclo[6.2.1.02,7]undeca-2,4,6-trien-1-yl]-N-ethyl-piperidine-1-carboxamide]"
22,14.4 nM,"CC1(C)[C@H]2CC[C@]1(Oc1ccccc1)c1nnc(-c3c(F)cccc3F)cc12 [Compound 24, (5S,8R)-3-(2,6-difluorophenyl)-9,9-dimethyl-8-phenoxy-5,6,7,8-tetrahydro-5,8-methanocinnoline]"
23,116 nM,"CC[C@@H](O[C@@]12CC[C@@H](c3cc(-c4c(F)cccc4F)nnc31)C2(C)C)C(=O)NC(CO)CO [Compound 53, (R)-2-(((5S,8R)-3-(2,6-difluorophenyl)-9,9-dimethyl-5,6,7,8-tetrahydro-5,8-methanocinnolin-8-yl)oxy)-N-(1,3-dihydroxypropan-2-yl)butanamide]"
24,75.4 nM,"CC[C@@H](O[C@@]12CC[C@@H](c3cc(-c4c(F)cccc4F)nnc31)C2(C)C)C(=O)NC[C@@H](O)CO [Compound 54, (R)-2-(((5S,8R)-3-(2,6-difluorophenyl)-9,9-dimethyl-5,6,7,8-tetrahydro-5,8-methanocinnolin-8-yl)oxy)-N-((R)-2,3-dihydroxypropyl)butanamide]"
25,33 nM,"CC1(C)[C@H]2CC[C@]1([C@H]1CCCN(C(=O)c3ccno3)C1)c1nnc(-c3c(F)cccc3F)cc12 (stereo in doubt) [Compound 166, [3-[5-(2,6-difluorophenyl)-11,11-dimethyl-3,4-diazatricyclo[6.2.1.02,7]undeca-2,4,6-trien-1-yl]-1-piperidyl]-isoxazol-5-yl-methanone]"
26,172 nM,"CC1(C)[C@H]2CC[C@]1([C@H]1CN(Cc3ccccc3)CCO1)c1nnc(-c3c(F)cccc3F)cc12 [Compound 61, (S)-4-benzyl-2-((5R,8R)-3-(2,6-difluorophenyl)-9,9-dimethyl-5,6,7,8-tetrahydro-5,8-methanocinnolin-8-yl)morpholine]"
27,202 nM,"CC1(C)[C@H]2CC[C@]1(Oc1cc[nH]c(=O)c1)c1nnc(-c3c(F)cccc3F)cc12 [Compound 34, 4-(((5S,8R)-3-(2,6-difluorophenyl)-9,9-dimethyl-5,6,7,8-tetrahydro-5,8-methanocinnolin-8-yl)oxy)pyridin-2(1H)-one]"
28,13 nM,"CN1CCN[C@H]([C@@]23CC[C@@H](c4cc(-c5c(F)cccc5F)nnc42)C3(C)C)C1 [Compound 183, 5-(2,6-difluorophenyl)-11,11-dimethyl-1-(4-methylpiperazin-2-yl)-3,4-diazatricyclo[6.2.1.02,7]undeca-2,4,6-triene]"
29,458 nM,"CC1(C)[C@H]2CC[C@]1([C@@H]1CNCCO1)c1nnc(-c3c(F)cccc3F)cc12 [Compound 66, (R)-2-((5R,8R)-3-(2,6-difluorophenyl)-9,9-dimethyl-5,6,7,8-tetrahydro-5,8-methanocinnolin-8-yl)morpholine]"
